From the supplement of paper PMC8612539
≈ marks a conversion by molar mass, not a printed value.

Tested on: Escherichia coli
Assay: minimum inhibitory concentration (MIC)
Method: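 Broth microdilution MIC (Sensititre BOPO7F bovine plate, CLSI methods) of 19 antimicrobials against field isolates of P. multocida, M. haemolytica, H. somni (deep nasopharyngeal swabs) and E. coli, Enterococcus spp. (rectal swabs) from weaned dairy heifers. Incubation 16-24 h at 35 C. MIC is the lowest concentration preventing visible growth. Values with <= or > lie at the tested range limits. Trimethoprim-sulfamethoxazole is given as the trimethoprim component of a 1:19 mixture.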

CC[C@H]1OC(=O)C[C@@H](O)[C@H](C)[C@@H](O[C@@H]2O[C@H](C)[C@@H](O)[C@H](N(C)C)[C@H]2O)[C@@H](CCN2C[C@H](C)C[C@H](C)C2)C[C@@H](C)C(=O)/C=C/C(C)=C/[C@@H]1CO[C@@H]1O[C@H](C)[C@@H](O)[C@@H](OC)[C@H]1OC [Tilmicosin]
Conditions | minimum inhibitory concentration [µg/mL]
isolate (source animal id): 8 | > 16
isolate (source animal id): 9 | > 16
isolate (source animal id): 10 | > 16
isolate (source animal id): 11 | > 16
isolate (source animal id): 12 | > 16
isolate (source animal id): 13 | > 16
isolate (source animal id): 14 | > 16
isolate (source animal id): 15 | > 16
isolate (source animal id): 16 | > 16
isolate (source animal id): 98 | > 16
isolate (source animal id): 99 | > 16
isolate (source animal id): 100 | > 16
isolate (source animal id): 101 | > 16
isolate (source animal id): 102 | > 16
isolate (source animal id): 103 | > 16
isolate (source animal id): 104 | > 16
isolate (source animal id): 105 | > 16
isolate (source animal id): 106 | > 16
isolate (source animal id): 107 | > 16
isolate (source animal id): 108 | > 16
isolate (source animal id): 109 | > 16
isolate (source animal id): 110 | > 16
isolate (source animal id): 111 | > 16
isolate (source animal id): 112 | > 16
isolate (source animal id): 113 | > 16
isolate (source animal id): 114 | > 16
isolate (source animal id): 115 | > 16
isolate (source animal id): 116 | > 16
isolate (source animal id): 117 | > 16
isolate (source animal id): 118 | > 16
isolate (source animal id): 119 | > 16
isolate (source animal id): 120 | > 16
isolate (source animal id): 121 | > 16
isolate (source animal id): 122 | > 16
isolate (source animal id): 123 | > 16
isolate (source animal id): 124 | > 16
isolate (source animal id): 125 | 16 (≈ 18.4 µM)
isolate (source animal id): 126 | > 16
isolate (source animal id): 127 | > 16
isolate (source animal id): 128 | > 16
isolate (source animal id): 129 | > 16
isolate (source animal id): 130 | > 16
isolate (source animal id): 131 | > 16
isolate (source animal id): 132 | > 16
isolate (source animal id): 133 | > 16
isolate (source animal id): 134 | > 16
isolate (source animal id): 135 | > 16
isolate (source animal id): 136 | > 16
isolate (source animal id): 137 | > 16
isolate (source animal id): 138 | > 16
isolate (source animal id): 139 | > 16
isolate (source animal id): 140 | > 16
isolate (source animal id): 141 | > 16
isolate (source animal id): 142 | > 16
isolate (source animal id): 143 | > 16
isolate (source animal id): 144 | > 16
isolate (source animal id): 145 | > 16
isolate (source animal id): 146 | > 16
isolate (source animal id): 147 | > 16
isolate (source animal id): 148 | > 16
isolate (source animal id): 149 | > 16
isolate (source animal id): 150 | > 16
isolate (source animal id): 151 | > 16
isolate (source animal id): 152 | > 16
isolate (source animal id): 153 | > 16
isolate (source animal id): 154 | > 16
isolate (source animal id): 155 | > 16
isolate (source animal id): 156 | > 16
isolate (source animal id): 157 | > 16
isolate (source animal id): 158 | > 16
isolate (source animal id): 159 | > 16
isolate (source animal id): 160 | > 16
isolate (source animal id): 161 | > 16
isolate (source animal id): 162 | > 16
isolate (source animal id): 163 | > 16
isolate (source animal id): 164 | > 16
isolate (source animal id): 165 | > 16
isolate (source animal id): 166 | > 16
isolate (source animal id): 167 | > 16
isolate (source animal id): 168 | > 16
isolate (source animal id): 169 | > 16
isolate (source animal id): 170 | > 16
isolate (source animal id): 171 | > 16
isolate (source animal id): 172 | > 16
isolate (source animal id): 173 | > 16
isolate (source animal id): 174 | > 16
isolate (source animal id): 175 | > 16
isolate (source animal id): 176 | > 16
isolate (source animal id): 177 | > 16
isolate (source animal id): 178 | > 16
isolate (source animal id): 179 | > 16
isolate (source animal id): 180 | > 16
isolate (source animal id): 181 | > 16
isolate (source animal id): 182 | > 16
isolate (source animal id): 183 | > 16
isolate (source animal id): 184 | > 16
isolate (source animal id): 185 | > 16
isolate (source animal id): 186 | > 16
isolate (source animal id): 187 | > 16
isolate (source animal id): 188 | > 16

CN1C[C@@H]2C[C@H]1CN2c1cc2c(cc1F)c(=O)c(C(=O)O)cn2C1CC1 [Danofloxacin]
Conditions | minimum inhibitory concentration [µg/mL]
isolate (source animal id): 8 | ≤ 0.12
isolate (source animal id): 9 | > 1
isolate (source animal id): 10 | ≤ 0.12
isolate (source animal id): 11 | ≤ 0.12
isolate (source animal id): 12 | > 1
isolate (source animal id): 13 | ≤ 0.12
isolate (source animal id): 14 | 0.5 (≈ 1.4 µM)
isolate (source animal id): 15 | ≤ 0.12
isolate (source animal id): 16 | ≤ 0.12
isolate (source animal id): 98 | ≤ 0.12
isolate (source animal id): 99 | ≤ 0.12
isolate (source animal id): 100 | ≤ 0.12
isolate (source animal id): 101 | ≤ 0.12
isolate (source animal id): 102 | ≤ 0.12
isolate (source animal id): 103 | ≤ 0.12
isolate (source animal id): 104 | ≤ 0.12
isolate (source animal id): 105 | ≤ 0.12
isolate (source animal id): 106 | > 1
isolate (source animal id): 107 | ≤ 0.12
isolate (source animal id): 108 | ≤ 0.12
isolate (source animal id): 109 | ≤ 0.12
isolate (source animal id): 110 | ≤ 0.12
isolate (source animal id): 111 | > 1
isolate (source animal id): 112 | ≤ 0.12
isolate (source animal id): 113 | > 1
isolate (source animal id): 114 | ≤ 0.12
isolate (source animal id): 115 | 1 (≈ 2.8 µM)
isolate (source animal id): 116 | > 1
isolate (source animal id): 117 | ≤ 0.12
isolate (source animal id): 118 | 0.5 (≈ 1.4 µM)
isolate (source animal id): 119 | > 1
isolate (source animal id): 120 | 1 (≈ 2.8 µM)
isolate (source animal id): 121 | ≤ 0.12
isolate (source animal id): 122 | ≤ 0.12
isolate (source animal id): 123 | ≤ 0.12
isolate (source animal id): 124 | > 1
isolate (source animal id): 125 | ≤ 0.12
isolate (source animal id): 126 | > 1
isolate (source animal id): 127 | ≤ 0.12
isolate (source animal id): 128 | ≤ 0.12
isolate (source animal id): 129 | 1 (≈ 2.8 µM)
isolate (source animal id): 130 | ≤ 0.12
isolate (source animal id): 131 | > 1
isolate (source animal id): 132 | 0.5 (≈ 1.4 µM)
isolate (source animal id): 133 | ≤ 0.12
isolate (source animal id): 134 | ≤ 0.12
isolate (source animal id): 135 | ≤ 0.12
isolate (source animal id): 136 | ≤ 0.12
isolate (source animal id): 137 | 1 (≈ 2.8 µM)
isolate (source animal id): 138 | > 1
isolate (source animal id): 139 | 0.25 (≈ 0.7 µM)
isolate (source animal id): 140 | ≤ 0.12
isolate (source animal id): 141 | ≤ 0.12
isolate (source animal id): 142 | ≤ 0.12
isolate (source animal id): 143 | 1 (≈ 2.8 µM)
isolate (source animal id): 144 | > 1
isolate (source animal id): 145 | ≤ 0.12
isolate (source animal id): 146 | 0.5 (≈ 1.4 µM)
isolate (source animal id): 147 | > 1
isolate (source animal id): 148 | 0.25 (≈ 0.7 µM)
isolate (source animal id): 149 | ≤ 0.12
isolate (source animal id): 150 | ≤ 0.12
isolate (source animal id): 151 | ≤ 0.12
isolate (source animal id): 152 | ≤ 0.12
isolate (source animal id): 153 | ≤ 0.12
isolate (source animal id): 154 | 0.5 (≈ 1.4 µM)
isolate (source animal id): 155 | ≤ 0.12
isolate (source animal id): 156 | 0.5 (≈ 1.4 µM)
isolate (source animal id): 157 | ≤ 0.12
isolate (source animal id): 158 | ≤ 0.12
isolate (source animal id): 159 | ≤ 0.12
isolate (source animal id): 160 | ≤ 0.12
isolate (source animal id): 161 | ≤ 0.12
isolate (source animal id): 162 | > 1
isolate (source animal id): 163 | ≤ 0.12
isolate (source animal id): 164 | ≤ 0.12
isolate (source animal id): 165 | ≤ 0.12
isolate (source animal id): 166 | ≤ 0.12
isolate (source animal id): 167 | ≤ 0.12
isolate (source animal id): 168 | ≤ 0.12
isolate (source animal id): 169 | ≤ 0.12
isolate (source animal id): 170 | ≤ 0.12
isolate (source animal id): 171 | ≤ 0.12
isolate (source animal id): 172 | ≤ 0.12
isolate (source animal id): 173 | ≤ 0.12
isolate (source animal id): 174 | ≤ 0.12
isolate (source animal id): 175 | ≤ 0.12
isolate (source animal id): 176 | ≤ 0.12
isolate (source animal id): 177 | ≤ 0.12
isolate (source animal id): 178 | ≤ 0.12
isolate (source animal id): 179 | ≤ 0.12
isolate (source animal id): 180 | ≤ 0.12
isolate (source animal id): 181 | ≤ 0.12
isolate (source animal id): 182 | ≤ 0.12
isolate (source animal id): 183 | ≤ 0.12
isolate (source animal id): 184 | ≤ 0.12
isolate (source animal id): 185 | ≤ 0.12
isolate (source animal id): 186 | ≤ 0.12
isolate (source animal id): 187 | ≤ 0.12
isolate (source animal id): 188 | > 1
